# Data: the supplement of paper PMC10307832
# How the values were obtained:
# Test in all cases: relative viability (nuclei count vs DMSO), 5 days (fraction); higher = more cells survive
# [1] = compound: Nc1nc2[nH]cc(CCc3ccc(C(=O)N[C@@H](CCC(=O)O)C(=O)O)cc3)c2c(=O)[nH]1 [Pemetrexed] + O=C(c1cc(Cc2n[nH]c(=O)c3ccccc23)ccc1F)N1CCN(C(=O)C2CC2)CC1 [Olaparib] (partner 8 µM)
# Method in brief: (§1)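 Medians of duplicate plates are given as relative viability. That measure is the nuclei count in treated wells divided by the count in vehicle wells. Counts were taken on 4× images of lung cancer cell lines in 1536-well plates, 5 days after pin-tool dosing the day after seeding with one drug alone or a fixed anchor-drug dose plus five library-drug doses (not always all listed) in √10 steps.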
# [2] = compound: Nc1nc2[nH]cc(CCc3ccc(C(=O)N[C@@H](CCC(=O)O)C(=O)O)cc3)c2c(=O)[nH]1 [Pemetrexed] + CCNC(=O)c1noc(-c2cc(C(C)C)c(O)cc2O)c1-c1ccc(CN2CCOCC2)cc1 [Luminespib] (partner 0.01 µM)
# Method in brief: as §1
# [3] = compound: CC[C@H](Nc1ncnc2[nH]cnc12)c1nc2cccc(F)c2c(=O)n1-c1ccccc1 [Idelalisib] + COc1cccc2cc(-c3nc([C@H]4CC[C@H](C(=O)O)CC4)n4ncnc(N)c34)[nH]c12 [OSI-027] (partner 0.5 µM)
# Method in brief: as §1
# [4] = compound: CC[C@H](Nc1ncnc2[nH]cnc12)c1nc2cccc(F)c2c(=O)n1-c1ccccc1 [Idelalisib] + O=C(CCCCCCC(=O)Nc1ccccc1)NO [Vorinostat] (partner 1 µM)
# Method in brief: as §1
Cell Line,relative viability ([1]; first compound 0.002 µM),relative viability ([1]; first compound 0.006325 µM),relative viability ([1]; first compound 0.02 µM),relative viability ([1]; first compound 0.06325 µM),relative viability ([1]; first compound 0.2 µM),relative viability ([2]; first compound 0.002 µM),relative viability ([2]; first compound 0.006325 µM),relative viability ([2]; first compound 0.02 µM),relative viability ([2]; first compound 0.06325 µM),relative viability ([2]; first compound 0.2 µM),relative viability ([3]; first compound 0.04 µM),relative viability ([3]; first compound 0.1265 µM),relative viability ([3]; first compound 0.4 µM),relative viability ([3]; first compound 1.265 µM),relative viability ([3]; first compound 4 µM),relative viability ([4]; first compound 0.04 µM),relative viability ([4]; first compound 0.1265 µM),relative viability ([4]; first compound 0.4 µM),relative viability ([4]; first compound 1.265 µM),relative viability ([4]; first compound 4 µM)
NCI-H1792,0.44,0.405,0.397,0.497,0.46,0.578,0.51,0.539,0.476,0.45,0.466,0.778,0.598,0.836,0.51,,,,,
NCI-H1651,0.175,0.191,0.205,0.193,0.184,0.845,0.792,0.965,0.983,0.732,0.701,0.731,0.508,0.778,0.596,0.577,0.416,0.552,0.617,0.593
A549,0.29,0.292,0.379,0.338,0.343,,,,,,,,,,,,,,,
HCC-366,0.345,0.432,0.385,0.36,0.332,,,,,,1.09,0.889,0.598,0.788,0.677,0.391,0.36,0.33,0.293,0.325
EKVX,0.794,0.796,0.884,0.883,0.499,0.968,0.876,0.977,0.816,0.784,0.705,0.709,0.527,0.557,0.586,0.726,0.792,0.676,0.703,0.399
NCI-H1993,0.885,1.02,1.21,1.06,0.798,0.432,0.623,0.868,0.913,0.41,0.575,0.53,0.512,0.584,0.552,0.983,1.09,0.516,0.921,0.487
NCI-H522,0.484,0.549,0.572,0.511,0.703,1.21,1,1.29,1.12,1.24,0.823,0.711,0.729,0.771,0.698,0.964,0.846,0.929,0.901,0.956
NCI-H1703,0.485,0.379,0.671,0.381,0.385,,,,,,,,,,,,,,,
NCI-H23,0.318,0.335,0.331,0.32,0.319,0.216,0.202,0.22,0.201,0.211,0.614,0.618,0.216,,0.537,0.674,0.657,0.395,0.317,0.62
HCC-827,0.666,0.614,0.618,0.633,0.416,0.541,0.633,0.856,0.724,0.382,0.928,0.738,0.759,0.698,0.659,0.957,0.664,0.897,0.848,0.969
PC-3 [JPC-3],1.03,1.18,1.19,1.14,1.08,0.678,0.79,0.702,0.715,0.758,0.712,0.747,0.639,0.694,0.571,1.04,0.952,0.841,0.86,0.747
NCI-H1355,0.676,0.709,0.731,0.754,0.691,0.737,0.662,0.656,0.693,0.715,0.401,0.476,0.273,0.401,0.366,0.628,0.662,0.512,0.612,0.548
NCI-H727,0.617,0.654,0.692,0.795,0.689,,0.255,0.346,0.689,0.506,0.749,0.708,0.45,0.562,0.52,1.24,1.17,1.12,1.25,1.05
IA-LM,0.74,0.725,0.926,0.889,0.852,,,,,,,,,,,0.607,0.907,0.913,1.02,0.944
NCI-H1975,0.645,0.748,0.765,0.677,0.323,0.169,0.295,0.177,0.195,0.169,0.819,0.764,0.61,0.917,0.429,0.693,0.776,0.681,0.671,0.588
NCI-H460,0.237,0.35,0.484,0.437,0.116,0.0265,0.0449,0.0346,0.0259,0.0265,0.911,0.794,0.469,0.571,0.45,0.526,0.783,0.692,0.525,0.686
NCI-H1648,0.953,0.926,0.768,0.732,0.766,,,,,,0.272,0.368,0.261,0.285,0.26,0.395,0.483,0.357,0.224,0.31
NCI-H1563,,,,,,0.496,0.505,0.562,0.481,0.569,0.766,0.757,0.703,0.767,0.701,,,,,
Calu-6,,0.525,0.646,0.524,0.578,,,,,,,,,,,,,,,
NCI-H1299,0.967,0.913,0.949,0.956,0.983,,,,,,,,,,,,,,,
EBC-1,0.684,0.714,0.723,0.665,0.545,,,,,,,,,,,,,,,
